# Results reported in the SangsterLogP compilation.
row,Structure (SMILES),logP
1,CC1=C(C(=O)O)N2C(=O)C(NC(=O)C(NC(=O)c3nn(-c4ccc(C)cc4)c(=O)[nH]c3=O)c3ccccc3)C2SC1 (centres undefined),4.8
2,CC1=C(C(=O)O)N2C(=O)C(NC(=O)C(NC(=O)c3nn(-c4ccccc4)c(=O)[nH]c3=O)c3ccccc3)C2SC1 (centres undefined),3.19
3,COc1ccc(-n2nc(C(=O)NC(C(=O)NC3C(=O)N4C(C(=O)O)=C(C)CSC34)c3ccccc3)c(=O)[nH]c2=O)cc1 (centres undefined),3.87
4,CCOc1ccc(-n2nc(C(=O)NC(C(=O)NC3C(=O)N4C(C(=O)O)=C(C)CSC34)c3ccccc3)c(=O)[nH]c2=O)cc1 (centres undefined),5.16
5,CC1=C(C(=O)O)N2C(=O)C(NC(=O)C(NC(=O)c3nn(-c4ccc(Cl)cc4Cl)c(=O)[nH]c3=O)c3ccccc3)C2SC1 (centres undefined),4.97
6,CC1=C(C(=O)O)N2C(=O)[C@@H](NC(=O)[C@H](NC(=O)c3nn(-c4ccccc4)c(=O)[nH]c3=O)c3ccc(O)cc3)[C@H]2SC1,1.26
7,CC1=C(C(=O)O)N2C(=O)C(NC(=O)C(NC(=O)c3nn(-c4ccc(Cl)cc4)c(=O)[nH]c3=O)c3ccccc3)C2SC1 (centres undefined),4.91
8,CC1=C(C(=O)O)N2C(=O)C(NC(=O)C(NC(=O)c3nn(-c4ccc(Cl)cc4Cl)c(=O)[nH]c3=O)c3ccc(O)cc3)C2SC1 (centres undefined),3.08
9,CC1=C(C(=O)O)N2C(=O)C(NC(=O)C(NC(=O)c3nn(-c4ccc([N+](=O)[O-])cc4)c(=O)[nH]c3=O)c3ccccc3)C2SC1 (centres undefined),3.15
10,CC(=O)c1ccc(-n2nc(C(=O)NC(C(=O)NC3C(=O)N4C(C(=O)O)=C(C)CSC34)c3ccccc3)c(=O)[nH]c2=O)cc1 (centres undefined),2.71
11,CC1=C(C(=O)O)N2C(=O)C(NC(=O)C(NC(=O)c3nn(-c4ccc(C)cc4)c(=O)[nH]c3=O)c3cccc(O)c3)C2SC1 (centres undefined),2.53
12,CC1=C(C(=O)O)N2C(=O)C(NC(=O)C(NC(=O)c3nn(-c4ccc(F)c(Cl)c4)c(=O)[nH]c3=O)c3ccc(O)cc3)C2SC1 (centres undefined),3.1
13,CC(=O)c1ccc(-n2nc(C(=O)NC(C(=O)NC3C(=O)N4C(C(=O)O)=C(C)CSC34)c3cccc(O)c3)c(=O)[nH]c2=O)cc1 (centres undefined),-0.04
14,CC1=C(C(=O)O)N2C(=O)C(NC(NC(=O)c3nn(-c4ccc(S(N)(=O)=O)cc4)c(=O)[nH]c3=O)c3ccc(O)cc3)C2SC1 (centres undefined),-0.39
